Reference: article PMC11951083, “Highly Specific Miniaturized Fluorescent Monoacylglycerol Lipase Probes Enable Translational Research” (Journal of the American Chemical Society, 2025)

Legend:
[1] = target: T1, MAGL (Homo sapiens, UniProt Q99685); test: Native MS (RapidFire) 2-AG substrate assay, purified human MAGL; assay type: biochemical; conditions: SI Table 1; read-out: IC50 against purified MAGL ± SEM, Human
T1 sequence (Q99685 1-303): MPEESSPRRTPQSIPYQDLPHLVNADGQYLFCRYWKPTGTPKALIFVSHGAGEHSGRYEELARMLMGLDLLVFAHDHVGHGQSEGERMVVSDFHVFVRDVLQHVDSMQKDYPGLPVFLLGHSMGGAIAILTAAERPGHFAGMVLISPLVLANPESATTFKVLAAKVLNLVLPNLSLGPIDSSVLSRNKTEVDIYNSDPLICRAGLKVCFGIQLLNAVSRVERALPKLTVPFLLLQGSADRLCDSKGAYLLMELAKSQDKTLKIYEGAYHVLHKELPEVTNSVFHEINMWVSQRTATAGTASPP
Experimental: (§1) In vitro MAGL Inhibition Assay
(§2) Compounds were profiled for MAGL inhibitory activity by determining the enzymatic activity by following the hydrolysis of the natural substrate 2-arachidonoylglycerol (2-AG), resulting in arachidonic acid, which can be followed by mass spectrometry. The 2-AG assay was carried out in 384 well assay plates (PP, Greiner Cat# 784201) in a total volume of 20 µL. Compound dilutions were made in 100% DMSO (VWR Chemicals 23500.297) in a polypropylene plate in 3-fold dilution steps to give a final concentration range in the assay from 12.5 µM to 0.8 pM. 0.25µL compound dilutions (100% DMSO) were added to 9 µL MAGL in assay buffer (50 mM TRIS (GIBCO, 15567-027), 1 mM EDTA (Fluka, 03690-100 mL), 0.01% (v/v) Tween. After shaking, the plate was incubated for 15 min at RT. To start the reaction, 10 µL 2-arachidonoylglycerol in assay buffer was added. The final concentrations in the assay were 50 pM MAGL and 8 µM 2-arachidonoylglyerol. After shaking and 30 min incubation at RT, the reaction was quenched by the addition of 40µL of ACN containing 4µM of d8-arachidonic acid. The amount of arachidonic acid was traced by an online SPE system (Agilent Rapidfire) coupled to a triple quadrupole mass spectrometer (Agilent 6460). A C18 SPE cartridge (G9205A) was used in an ACN/water liquid setup. The mass spectrometer was operated in negative electrospray mode following the mass transitions 303.1 → 259.1 for arachidonic acid and 311.1 → 267.0 for d8-arachidonic acid. The activity of the compounds was calculated based on the ratio of intensities [arachidonic acid / d8-arachidonic acid]. The lowest IC50 value that can be determined with high accuracy is approximately 0.025 nM.

[2] = target: T2, mMAGL (Mus musculus, UniProt O35678); test: Native MS (RapidFire) 2-AG substrate assay, purified mouse MAGL; assay type: biochemical; conditions: SI Table 1; read-out: IC50 against purified MAGL ± SEM, Mouse
T2 sequence (O35678 1-303): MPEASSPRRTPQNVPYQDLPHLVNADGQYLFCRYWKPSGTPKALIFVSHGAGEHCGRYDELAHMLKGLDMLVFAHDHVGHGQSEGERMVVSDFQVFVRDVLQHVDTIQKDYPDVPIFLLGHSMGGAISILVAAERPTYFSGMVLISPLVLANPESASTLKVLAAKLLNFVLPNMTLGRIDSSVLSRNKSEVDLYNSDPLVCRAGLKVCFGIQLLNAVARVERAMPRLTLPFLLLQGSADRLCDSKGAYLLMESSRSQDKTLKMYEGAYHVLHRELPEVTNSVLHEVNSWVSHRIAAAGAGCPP
Experimental: as §1, §2

[3] = target: NanoLuc luciferase MAGL fusion protein; test: Cellular MAGL NanoBRET target engagement assay in live HEK293 cells; assay type: cell-based; conditions: SI Table 1, live HEK293 cells; read-out: NanoBRET IC50 ± SEM, HEK293
Experimental: This assay was performed as first described before.20
Compounds were profiled by a novel cellular MAGL NanoBRET™ Target Engagement assay, which measures the apparent affinity of test compounds by competitive displacement of a Roche -developed Tracer (WO2021058443, Example 2 121, or probe 4a, respectively), reversibly bound to a NanoLuc ® luciferase MAGL fusion protein in cells.
A HEK293A stable cell line expressing NanoLuc_MAGL was established at Roche and assigned as HEK293A_NanoLuc_MAGL clone #43. A fixed concentration of tracer is added to cells expressing the NanoLuc®_MAGL fusion protein to generate a BRET reporter complex. The introduction of competing compounds results in a dose -dependent decrease in NanoBRET™ energy transfer, which allows quantification of the intracellular affinity of the target protein for the test compound.
HEK293A_NanoLuc_MAGL clone #43 cells were cultured in DMEM (Gibco 31966) with 10% FBS and 800 ug/ml G418. The NanoBRET assay was performed by seeding 5000 cells/well in Costar low - volume white 384-well plate in assay buffer (1% FBS in HBSS), followed by adding the tracer (50 nM Example 21 or 100 nM 4a final concentration) and serial dilutions of test compounds. After 2 hours of incubation, Nanoluciferase substrates and extracellular inhibitors were added following the manufacturer's protocol (Promega, #N2520), and the NanoBRET signaling were quantified with the Paradigm (Molecular Devices).

[4] = target: T3, rMAGL (Rattus norvegicus, UniProt Q8R431); test: Native MS (RapidFire) 2-AG substrate assay, purified rat MAGL; assay type: biochemical; conditions: SI Table 1; read-out: IC50 against purified MAGL ± SEM, Rat
T3 sequence (Q8R431 1-303): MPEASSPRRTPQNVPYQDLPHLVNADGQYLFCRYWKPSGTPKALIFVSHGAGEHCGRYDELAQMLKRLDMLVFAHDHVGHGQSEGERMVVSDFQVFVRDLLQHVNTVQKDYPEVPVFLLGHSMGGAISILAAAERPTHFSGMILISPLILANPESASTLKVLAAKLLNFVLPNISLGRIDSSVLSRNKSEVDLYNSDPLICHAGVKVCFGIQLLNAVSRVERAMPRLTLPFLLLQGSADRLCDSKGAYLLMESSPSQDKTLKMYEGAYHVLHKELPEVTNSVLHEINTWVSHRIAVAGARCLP
Experimental: as §1, §2

[5] = target: T4, cMAGL (Macaca fascicularis, UniProt A0A2K5V664); test: Native MS (RapidFire) 2-AG substrate assay, purified cynomolgus monkey MAGL; assay type: biochemical; conditions: SI Table 1; read-out: IC50 against purified MAGL ± SEM, Cynomolgus
T4 sequence (A0A2K5V664 11-297): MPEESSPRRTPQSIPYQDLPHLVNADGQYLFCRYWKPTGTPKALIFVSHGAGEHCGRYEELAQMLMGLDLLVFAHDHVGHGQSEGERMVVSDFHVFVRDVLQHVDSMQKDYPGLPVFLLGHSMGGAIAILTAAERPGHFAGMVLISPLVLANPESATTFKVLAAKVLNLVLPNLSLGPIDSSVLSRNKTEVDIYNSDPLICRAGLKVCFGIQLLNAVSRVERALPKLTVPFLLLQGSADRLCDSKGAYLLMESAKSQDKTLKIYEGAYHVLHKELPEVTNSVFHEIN
Experimental: as §1, §2

In the case of `O=C1N[C@H](CCC(=O)N2CC3(CC(CC4=C5C=CC=[N+]5[B-](F)(F)n5cccc54)C3)C2)CO1` [Compound S17], the IC50 [1] is reported as 1.01 nM, the IC50 [2] is reported as 0.84 nM and the IC50 [3] is reported as 300 nM.

Work on `O=C1NC2(CO1)CN(C(=O)N1CC3(CC(=CC4=C5C=CC=[N+]5[B-](F)(F)n5cccc54)C3)C1)C2` [Compound S14] yielded an IC50 [1] of 12.6 nM, an IC50 [2] of 12.4 nM and an IC50 [3] of over 10000 nM.

Work on `O=C1CO[C@H]2CCN(C(=O)N3CCC4(CC3)CC(OC3=C5C=CC=[N+]5[B-](F)(F)n5cccc53)C4)C[C@H]2N1` [Compound S6] yielded an IC50 [1] of 45 nM, an IC50 [2] of 170 nM and an IC50 [3] of over 10000 nM.

For `NC(=O)[C@H]1CCN(C(=O)N2CC3(CC(CC4=C5C=CC=[N+]5[B-](F)(F)n5cccc54)C3)C2)C1` [Compound S18], the IC50 [1] was 1.98 nM, the IC50 [2] was 2.07 nM and the IC50 [3] was 1940 nM.

Work on `O=C1CO[C@H]2CCN(C(=O)N3CC4(CCC(CC5=C6C=CC=[N+]6[B-](F)(F)n6cccc65)CC4)C3)C[C@H]2N1` [Compound S12] yielded an IC50 [1] of 2.35 nM, an IC50 [2] of 12.4 nM and an IC50 [4] of 10.9 nM. For the same compound, the IC50 [5] was 2.73 nM and the IC50 [3] was 564 nM.

Work on `O=C1NC2(CO1)CN(C(=O)N1CC3(CC(CC4=C5C=CC=[N+]5[B-](F)(F)n5cccc54)C3)C1)C2` [Compound S15] yielded an IC50 [1] of 1.26 nM, an IC50 [2] of 1.36 nM and an IC50 [4] of 4.46 nM. It also gave an IC50 [5] of 3.27 nM and an IC50 [3] of 5540 nM.

With `O=C1NC2(CO1)CN(C(=O)N1CC3(CCC(=CC4=C5C=CC=[N+]5[B-](F)(F)n5cccc54)CC3)C1)C2` [Compound S16] the IC50 [1] was 0.67 nM, the IC50 [2] was 0.81 nM and the IC50 [3] was 574 nM.

`O=C1COc2ccc(C(=O)N3CC4(CC(CC5=C6C=CC=[N+]6[B-](F)(F)n6cccc65)C4)C3)cc2N1` [Compound S19] gave an IC50 [1] of 7.5 nM, an IC50 [2] of 18.6 nM and an IC50 [3] of 299 nM.

In the case of `O=C1CO[C@H]2CCN(C(=O)N3CC4(CC(=CC5=C6C=CC=[N+]6[B-](F)(F)n6cccc65)C4)C3)C[C@H]2N1` [Compound S13], the IC50 [1] is reported as 43.3 nM, the IC50 [2] is reported as 182 nM and the IC50 [3] is reported as over 10000 nM.

In the case of `O=C1NC2(CO1)CN(C(=O)N1CCC3(CC1)CC(OC1=C4C=CC=[N+]4[B-](F)(F)n4cccc41)C3)C2` [Compound S8], the IC50 [1] is reported as 3.99 nM, the IC50 [2] is reported as 13.6 nM and the IC50 [3] is reported as over 10000 nM.

`Cc1ccc2oc(N3CCN(C(=O)N4CC5(CC(CC6=C7C=CC=[N+]7[B-](F)(F)n7cccc76)C5)C4)CC3)nc2n1` [Compound S20] gave an IC50 [1] of 17.2 nM, an IC50 [2] of 108 nM and an IC50 [3] of over 10000 nM.

`O=C1CO[C@H]2CCN(C(=O)N3CC4(CCC(OC5=C6C=CC=[N+]6[B-](F)(F)n6cccc65)CC4)C3)C[C@H]2N1` [Compound S4] was tested, and the IC50 [1] was 3.82 ± 1.91 nM, the IC50 [2] was 7.06 ± 4.73 nM and the IC50 [4] was 21.6 nM. For the same compound, the IC50 [5] was 8.37 nM and the IC50 [3] was 4630 ± 52 nM.

`O=C1CO[C@H]2CCN(C(=O)N3CCC(=CC4=C5C=CC=[N+]5[B-](F)(F)n5cccc54)CC3)C[C@H]2N1` [Compound S10] showed an IC50 [1] of 1680 nM, an IC50 [2] of 3400 nM and an IC50 [3] of over 10000 nM.

In the case of `O=C1CO[C@H]2CCN(C(=O)N3C[C@@H]4[C@@H](COC5=C6C=CC=[N+]6[B-](F)(F)n6cccc65)[C@@H]4C3)C[C@H]2N1` [Compound S3], the IC50 [1] is reported as 500 nM, the IC50 [2] is reported as 1040 nM and the IC50 [3] is reported as over 10000 nM.

`O=C1CO[C@H]2CCN(C(=O)N3CC4(CC(CC5=C6C=CC(c7ccccc7)=[N+]6[B-](F)(F)n6cccc65)C4)C3)C[C@H]2N1` [Compound S22] was tested, and the IC50 [1] was 0.66 nM, the IC50 [2] was 0.37 nM and the IC50 [3] was 56 ± 6 nM.
